pIC50: −log10 of the molar value.
Target: T1, glucocerebrosidase (GCase; recombinant human-derived GBA/Glucosylceramidase, rGCase) (Homo sapiens, UniProt P04062)
T1 construct: gene GBA1; recombinant human-derived GBA/Glucosylceramidase (rGCase)
T1 sequence (P04062 40-536): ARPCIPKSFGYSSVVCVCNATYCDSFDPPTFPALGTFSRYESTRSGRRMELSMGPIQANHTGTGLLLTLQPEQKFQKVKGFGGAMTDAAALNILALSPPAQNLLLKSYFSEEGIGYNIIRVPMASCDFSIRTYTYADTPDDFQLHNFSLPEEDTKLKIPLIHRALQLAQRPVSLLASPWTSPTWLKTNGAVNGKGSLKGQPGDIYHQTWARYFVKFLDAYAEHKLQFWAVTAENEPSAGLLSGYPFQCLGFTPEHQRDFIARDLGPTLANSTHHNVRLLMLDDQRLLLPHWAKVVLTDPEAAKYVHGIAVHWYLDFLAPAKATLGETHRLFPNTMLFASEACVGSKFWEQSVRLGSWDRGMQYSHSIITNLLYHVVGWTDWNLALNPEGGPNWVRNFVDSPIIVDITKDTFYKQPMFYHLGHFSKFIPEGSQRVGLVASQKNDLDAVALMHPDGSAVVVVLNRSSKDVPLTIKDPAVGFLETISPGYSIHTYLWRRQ
Assay: fluorogenic 4MU-β-Glc inhibition assay with recombinant GCase, pH […]
Format: biochemical

SMILES: CC(=O)NCC(=O)O [NAG, N-acetylglycine]
- pIC50: 4.31

From article PMC12560097, “An injectable hydrogel containing N-acetylglycine for the treatment of Gaucher disease” (RSC Advances, 2025)
